Laboratory results from patent US6716851B2, “Substituted 2-aryl-4-arylaminopyrimidines and analogs as activators or caspases and inducers of apoptosis and the use thereof” (Cytovia, Inc., priority 2000, dated 2004).
Where a name gives a salt, the structure may show the parent alone.

Legend:
ZR-75-1 cells = assay: Caspase cascade activation (N-(Ac-DEVD)-N'-ethoxycarbonyl-R110 fluorogenic substrate) in ZR-75-1 cells; assay type: cell-based, Human; conditions: ZR-75-1, 48 h incubation; for EC50: Homo sapiens, caspase activation potency; for ZR Ratio 48 hr: caspase activity: ratio of net RFU of test compound to control
Method: (§1) Human breast cancer cell lines T-47D and ZR-75-1 were grown according to media component mixtures designated by American Type Culture Collection +10% FCS (Invitrogen Corporation, Life Technologies division), in a 5% CO2-95% humidity incubator at 37° C. T-47D and ZR-75-1 cells were maintained at a cell density between 50 and 80% confluency at a cell density of 0.1 to 0.6×10^6 cells/ml. Cells were harvested at 600× g and resuspended at 0.65×10^6 cells/ml into appropriate media +10% FCS. An aliquot of […] of cells was added to a well of a […] microtiter plate containing 2.5 μl of a 10% DMSO in RPMI-1640 media solution containing 0.16 to 100 μM of 4-(3-methoxyanilino)-2-(2-pyridinyl)-6-(trifluoromethyl)pyrimidine or other test compound (0.016 to 10 μM final). An aliquot of 22.5 μl of cells was added to a well of a 384-well microtiter plate containing 2.5 μl of a 10% DMSO in RPMI-1640 media solution without test compound as the control sample. The samples were mixed by agitation and then incubated at 37° C. for 48 h in a 5% CO2-95% humidity incubator. After incubation, the samples were removed from the incubator and 25 μl of a solution containing 14 μM of N-(Ac-DEVD)-N′-ethoxycarbonyl-R110 fluorogenic substrate (Cytovia, Inc.; WO99/18856), 20% sucrose (Sigma), 20 mM DTT (Sigma), 200 mM NaCl (Sigma), 40 mM Na PIPES buffer pH 7.2 (Sigma), and 500 μg/ml lysolecithin (Calbiochem) was added. The samples were mixed by agitation and incubated at room temperature. Using a fluorescent plate reader (Model SpectraMax Gemini, Molecular Devices), an initial reading (T=0) was made approximately 1-2 min after addition of the substrate solution, employing excitation at 485 nm and emission at 530 nm, to determine the background fluorescence of the control sample. After the 3 h incubation, the samples were read for fluorescence as above (T=3 h).
(§2) The Relative Fluorescence Unit values (RFU) were used to calculate the sample readings as follows:
(§3) RFU(T=3h)−Control RFU(T=0)=Net RFU(T=3h)
(§4) The activity of caspase cascade activation was determined by the ratio of the net RFU value for 4-(3-methoxyanilino)-2-(2-pyridinyl)-6-(trifluoromethyl)pyrimidine or other test compound to that of control samples. The EC50 (nM) was determined by a sigmoidal dose-response calculation (Prism 2.0, GraphPad Software Inc.).

T-47D cells = assay: Caspase cascade activation (N-(Ac-DEVD)-N'-ethoxycarbonyl-R110 fluorogenic substrate) in T-47D cells; assay type: cell-based, Human; conditions: 48 h incubation; for EC50: Homo sapiens, T47D, caspase activation potency, read-out: T47 EC50; for T47 Ratio 48 hr: caspase activity: ratio of net RFU of test compound to control
Method: as §1, §2, §3, §4

Row | Structure (SMILES) | EC50 (ZR-75-1 cells) [nM] | EC50 (T-47D cells) [nM] | ZR Ratio 48 hr (ZR-75-1 cells) | T47 Ratio 48 hr (T-47D cells)
1 | COc1cccc(CNc2cc(C(F)(F)F)nc(-c3cccnc3)n2)c1 [Example 104, 4-(3-Methoxybenzylamino)-2-(3-pyridinyl)-6-(trifluoromethyl)pyrimidine] | > 5000 | > 5000 | 1.7 | 1.1
2 | Oc1ccc(Cl)c(Nc2cc(C(F)(F)F)nc(-c3cccnc3)n2)c1 [Example 106, 4-(2-Chloro-5-hydroxyanilino)-2-(3-pyridinyl)-6-(trifluoromethyl)pyrimidine] | 982 | 183 | 2.4 | 9.0
3 | Oc1ccc(Cl)c(Nc2cc(C(F)(F)F)nc(-c3ccncc3)n2)c1 [Example 107, 4-(2-Chloro-5-hydroxyanilino)-2-(4-pyridinyl)-6-(trifluoromethyl)pyrimidine] | 123 | 63 | 5.3 | 8.0
4 | Cc1cc(Nc2c(C)cccc2C)nc(-c2ccccn2)n1 [Example 108, 4-(2,6-Dimethylanilino)-6-methyl-2-(2-pyridinyl)pyrimidine] | 4370 | > 5000 | 2.4 | 0.9
5 | COc1cccc(Nc2cc(-c3ccccn3)nc(-c3ccccn3)n2)c1 [Example 109, 4-(3-Methoxyanilino)-2,6-di(2-pyridinyl)pyrimidine] | 2590 | 1500 | 3.6 | 3.9
6 | COc1ccc(OC)c(Nc2cc(-c3ccccn3)nc(-c3ccccn3)n2)c1 [Example 110, 4-(2,5-Dimethoxyanilino)-2,6-di(2-pyridinyl)pyrimidine] | 648 | 576 | 11.6 | 8.9
7 | COc1ccc(C)c(Nc2cc(-c3ccccn3)nc(-c3ccccn3)n2)c1 [Example 111, 4-(5-Methoxy-2-methylanilino)-2,6-di(2-pyridinyl)pyrimidine] | 2570 | 1420 | 3.9 | 4.0
8 | COc1ccc(C)cc1Nc1cc(-c2ccccn2)nc(-c2ccccn2)n1.Cl [Example 112, 4-(2-Methoxy-5-methylanilino)-2,6-di(2-pyridinyl)pyrimidine] | 2370 | 1860 | 2.9 | 3.3
9 | COc1ccc(Cl)c(Nc2cc(-c3ccccn3)nc(-c3ccccn3)n2)c1.Cl [Example 113, 4-(2-Chloro-5-methoxyanilino)-2,6-di(2-pyridinyl)pyrimidine] | 2730 | 1430 | 4.1 | 4.4
10 | Cc1ccc(C)c(Nc2cc(-c3ccccn3)nc(-c3ccccn3)n2)c1 [Example 114, 4-(2,5-Dimethylanilino)-2,6-di(2-pyridinyl)pyrimidine] | 2800 | 2540 | 3.7 | 3.6
11 | Cc1ccc(C)c(Nc2cc(C(F)(F)F)nc(-c3ccncc3)n2)c1 [Example 115, 4-(2,5-Dimethylanilino)-2-(4-pyridinyl)-6-(trifluoromethyl)pyrimidine hydrochloride] | 59 | 112 | 11.6 | 14.2
12 | COc1ccc(C)cc1Nc1cc(C(F)(F)F)nc(-c2ccncc2)n1 [Example 116, 4-(2-Methoxy-5-methylanilino)-2-(4-pyridinyl)-6-(trifluoromethyl)pyrimidine] | 73 | 71 | 8.8 | 13.7
13 | Cc1ccc(O)cc1Nc1cc(C(F)(F)F)nc(-c2cccnc2)n1 [Example 117, 4-(5-Hydroxy-2-methylanilino)-2-(3-pyridinyl)-6-(trifluoromethyl)pyrimidine] | 276 | 138 | 6.3 | 11.3

More lines, main results first:

Row | EC50 (ZR-75-1 cells) [nM] | EC50 (T-47D cells) [nM] | Structure (SMILES) | ZR Ratio 48 hr (ZR-75-1 cells) | T47 Ratio 48 hr (T-47D cells)
14 | 31 | 34 | Cc1ccc(O)cc1Nc1cc(C(F)(F)F)nc(-c2ccncc2)n1 [Example 118, 4-(5-Hydroxy-2-methylanilino)-2-(4-pyridinyl)-6-(trifluoromethyl)pyrimidine] | 9.9 | 8.8
15 | 2400 | 2690 | Cc1ccc(C#N)c(Nc2cc(C(F)(F)F)nc(-c3cccnc3)n2)c1 [Example 120, 4-(2-Cyano-5-methylanilino)-2-(3-pyridinyl)-6-(trifluoromethyl)pyrimidine] | 4.5 | 8.2
16 | 380 | 480 | Cc1cc(C)cc(Nc2cc(C(F)(F)F)nc(-c3cccnc3)n2)c1 [Example 121, 4-(3,5-Dimethylanilino)-2-(3-pyridinyl)-6-(trifluoromethyl)pyrimidine] | 9.9 | 11.2
17 | 192 | 44 | COc1cc(Nc2cc(C(F)(F)F)nc(-c3cccnc3)n2)cc(OC)c1.Cl [Example 122, 4-(3,5-Dimethoxyanilino)-2-(3-pyridinyl)-6-(trifluoromethyl)pyrimidine hydrochloride] | 10.1 | 11.1
18 | 725 | 763 | Cc1ccc(Cl)c(Nc2cc(C(F)(F)F)nc(-c3cccnc3)n2)c1 [Example 123, 4-(2-Chloro-5-methylanilino)-2-(3-pyridinyl)-6-(trifluoromethyl)pyrimidine] | 15.8 | 21.2
19 | 688 | 720 | COc1cc(Nc2cc(C(F)(F)F)nc(-c3cccnc3)n2)cc(C(F)(F)F)c1 [Example 124, 4-(3-Methoxy-5-trifluoromethylanilino)-2-(3-pyridinyl)-6-(trifluoromethyl)pyrimidine] | 16.3 | 19.9
20 | 2240 | 3470 | COc1ccc(Cl)c(Nc2cc(C(F)(F)F)nc(-c3ccc(C(F)(F)F)nc3)n2)c1 [Example 125, 4-(2-Chloro-5-methoxyanilino)-2-[6-(trifluoromethyl)-3-pyridinyl]-6-(trifluoromethyl)pyrimidine] | 8.1 | 4.4
21 | 353 | 222 | COc1ccc(Br)cc1Nc1cc(C(F)(F)F)nc(-c2cccnc2)n1 [Example 126, 4-(5-Bromo-2-methoxyanilino)-2-(3-pyridinyl)-6-(trifluoromethyl)pyrimidine] | 5.9 | 12.0
22 | 550 | 279 | COc1ccc(Br)c(Nc2cc(C(F)(F)F)nc(-c3cccnc3)n2)c1 [Example 127, 4-(2-Bromo-5-methoxyanilino)-2-(3-pyridinyl)-6-(trifluoromethyl)pyrimidine] | 5.3 | 10.3
23 | > 5000 | > 5000 | Cc1cc(Nc2cc(C(F)(F)F)nc(-c3cccnc3)n2)cc(C(F)(F)F)c1 [Example 128, 4-[3-Methyl-5-(trifluoromethyl)anilino]-2-(3-pyridinyl)-6-(trifluoromethyl)pyrimidine] | 1.5 | 1.4
